Our source for the IC50 values is patent US20170334899A1, “AMINO-SUBSTITUTED ISOTHIAZOLES” (Bayer Pharma Aktiengesellschaft, priority 2014, published 2017).

pIC50: −log10 of the molar value.

The target in this experiment is T1, human kinase Mps-1 (Homo sapiens, UniProt P33981).
T1 construct: N-terminally GST-tagged human full length recombinant Mps-1 kinase; GST (N); purchased Invitrogen, Karslruhe, Germany PV4071
T1 sequence (P33981 1-857): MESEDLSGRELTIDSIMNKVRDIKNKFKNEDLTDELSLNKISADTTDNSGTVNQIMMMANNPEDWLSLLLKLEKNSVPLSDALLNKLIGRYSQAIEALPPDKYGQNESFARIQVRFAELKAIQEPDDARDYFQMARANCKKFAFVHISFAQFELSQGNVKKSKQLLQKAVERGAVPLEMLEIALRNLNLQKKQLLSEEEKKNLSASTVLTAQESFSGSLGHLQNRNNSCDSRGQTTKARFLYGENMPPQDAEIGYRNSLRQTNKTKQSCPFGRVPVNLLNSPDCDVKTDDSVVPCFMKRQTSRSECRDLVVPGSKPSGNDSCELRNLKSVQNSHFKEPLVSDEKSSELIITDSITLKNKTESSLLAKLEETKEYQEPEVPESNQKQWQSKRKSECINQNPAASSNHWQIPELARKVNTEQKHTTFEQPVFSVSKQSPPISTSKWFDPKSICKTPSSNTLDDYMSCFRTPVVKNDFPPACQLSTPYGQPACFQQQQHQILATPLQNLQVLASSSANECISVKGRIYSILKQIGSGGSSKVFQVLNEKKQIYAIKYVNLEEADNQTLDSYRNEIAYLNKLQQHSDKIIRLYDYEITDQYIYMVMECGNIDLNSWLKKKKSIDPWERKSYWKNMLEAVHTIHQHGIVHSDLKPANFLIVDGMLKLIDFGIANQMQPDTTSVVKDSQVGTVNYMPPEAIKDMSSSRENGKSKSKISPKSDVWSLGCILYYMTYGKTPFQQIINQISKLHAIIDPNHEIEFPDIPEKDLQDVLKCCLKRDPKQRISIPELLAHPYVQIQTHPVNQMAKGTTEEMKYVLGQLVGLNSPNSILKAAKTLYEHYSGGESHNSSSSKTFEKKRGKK
Description: Mps-1 kinase assay (TR-FRET). The format is biochemical. Particulars: Mps-1 TR-FRET kinase assay; avg; read-out: Mps1 avg (IC50 [mol/l]). The procedure, abridged:
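GST-tagged full-length recombinant human Mps-1 (~0.5 nM) pre-incubated 15 min with compound, then reacted 60 min at 22 °C with 10 μM ATP and 1 μM biotinylated peptide in Hepes pH 7.7 buffer. EDTA-stopped; TR-FRET (Eu anti-phospho-Ser/Thr to SA-XLent) 665/620 nm ratio normalised to no-inhibitor and no-enzyme controls.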
(In general: TR-FRET usually uses a lanthanide donor and a delayed reading to cut background.)
In the case of `Cc1nsc(Nc2cnc(C(F)(F)F)cn2)c1C(=O)Nc1ccc(F)c(OC2CCN(CC(F)(F)F)C2)c1` (stereo not drawn) [Example 315, N-(4-fluoro-3-{[1-(2,2,2-trifluoroethyl)pyrrolidin-3-yl]oxy}phenyl)-3-methyl-5-{[5-(trifluoromethyl)pyrazin-2-yl]amino}-1,2-thiazole-4-carboxamide], the pIC50 was at most 4.70. For `CCN1CCN(C(=O)c2ccc(NC(=O)c3c(C)nsc3Nc3cncc(C(F)(F)F)n3)cc2)CC1` [Example 275, N-{4-[(4-ethylpiperazin-1-yl)carbonyl]phenyl}-3-methyl-5-{[6-(trifluoromethyl)pyrazin-2-yl]amino}-1,2-thiazole-4-carboxamide], the pIC50 was under 4.70. As for `Cc1nsc(Nc2cncc(C(F)(F)F)n2)c1C(=O)Nc1ccc(C(=O)N2CCN(CC(F)(F)F)CC2)cc1` [Example 272, 3-methyl-N-(4-{[4-(2,2,2-trifluoroethyl)piperazin-1-yl]carbonyl}phenyl)-5-{[6-(trifluoromethyl)pyrazin-2-yl]amino}-1,2-thiazole-4-carboxamide], the pIC50 is under 4.70. In the case of `Cc1nsc(Nc2cnc3ccccc3n2)c1C(=O)Nc1cccc(NS(=O)(=O)C2CCN(CC(F)F)CC2)c1` [Example 282, N-[3-({[1-(2,2-difluoroethyl)piperidin-4-yl]sulfonyl}amino)phenyl]-3-methyl-5-(quinoxalin-2-ylamino)-1,2-thiazole-4-carboxamide] it was under 4.70. In the case of `Cc1nsc(Nc2ccc(C#N)cn2)c1C(=O)Nc1cccc(C(=O)NC2CC2)c1` [Example 250, 5-[(5-cyanopyridin-2-yl)amino]-N-[3-(cyclopropylcarbamoyl)phenyl]-3-methyl-1,2-thiazole-4-carboxamide] it was under 4.70; in that of `Cc1nsc(Nc2cncc(C(F)(F)F)n2)c1C(=O)Nc1ccc(C(=O)N2CCN(CCF)CC2)cc1` [Example 274, N-(4-{[4-(2-fluoroethyl)piperazin-1-yl]carbonyl}phenyl)-3-methyl-5-{[6-(trifluoromethyl)pyrazin-2-yl]amino}-1,2-thiazole-4-carboxamide], under 4.70. In the case of `Cc1nsc(Nc2cnc(C(F)(F)F)cn2)c1C(=O)Nc1ccc(OC2CCN(CCF)C2)nc1` (stereo not drawn) [Example 295, N-(6-{[1-(2-fluoroethyl)pyrrolidin-3-yl]oxy}pyridin-3-yl)-3-methyl-5-{[5-(trifluoromethyl)pyrazin-2-yl]amino}-1,2-thiazole-4-carboxamide] it was under 4.70; in that of `Cc1nsc(Nc2cncc(C(F)(F)F)n2)c1C(=O)Nc1ccc(OCCCO)nc1` [Example 278, N-[6-(3-hydroxypropoxy)pyridin-3-yl]-3-methyl-5-{[6-(trifluoromethyl)pyrazin-2-yl]amino}-1,2-thiazole-4-carboxamide], under 4.70. As for `Cc1nsc(Nc2cnc(C(F)(F)F)cn2)c1C(=O)Nc1ccc(F)c(OCC2CCN(CCF)CC2)c1` [Example 309, N-(4-fluoro-3-{[1-(2-fluoroethyl)piperidin-4-yl]methoxy}phenyl)-3-methyl-5-{[5-(trifluoromethyl)pyrazin-2-yl]amino}-1,2-thiazole-4-carboxamide], the pIC50 was at most 4.70.

For `Cc1nsc(Nc2cnc(C(F)(F)F)cn2)c1C(=O)Nc1ccc(F)c(OCC2CCN(C(CF)CF)C2)c1` (stereo not drawn) [Example 320, N-(3-{[1-(1,3-difluoropropan-2-yl)pyrrolidin-3-yl]methoxy}-4-fluorophenyl)-3-methyl-5-{[5-(trifluoromethyl)pyrazin-2-yl]amino}-1,2-thiazole-4-carboxamide], the pIC50 is at most 4.70. In the case of `Cc1nsc(Nc2cnc3ccccc3n2)c1C(=O)Nc1cccc(NS(=O)(=O)C2CN(CC(F)F)C2)c1` [Example 286, N-[3-({[1-(2,2-difluoroethyl)azetidin-3-yl]sulfonyl}amino)phenyl]-3-methyl-5-(quinoxalin-2-ylamino)-1,2-thiazole-4-carboxamide] it was 4.85; in that of `Cc1nsc(Nc2cnc(C(F)(F)F)cn2)c1C(=O)Nc1ccc(OC2CCN(C(CF)CF)C2)nc1` (stereo not drawn) [Example 313, N-(6-{[1-(1,3-difluoropropan-2-yl)pyrrolidin-3-yl]oxy}pyridin-3-yl)-3-methyl-5-{[5-(trifluoromethyl)pyrazin-2-yl]amino}-1,2-thiazole-4-carboxamide], at most 4.70. In the case of `Cc1nsc(Nc2cnc(C(F)(F)F)cn2)c1C(=O)Nc1ccc(F)c(OCCCNCC(F)(F)F)c1` [Example 306, N-(4-fluoro-3-{3-[(2,2,2-trifluoroethyl)amino]propoxy}phenyl)-3-methyl-5-{[5-(trifluoromethyl)pyrazin-2-yl]amino}-1,2-thiazole-4-carboxamide] it was at most 4.70.

As to `Cc1nsc(Nc2cnc3ccccc3n2)c1C(=O)Nc1cccc(NS(=O)(=O)C2CCN(C(=O)OC(C)(C)C)C2)c1` (stereo not drawn) [Example 290, tert-butyl 3-{[3-({[3-methyl-5-(quinoxalin-2-ylamino)-1,2-thiazol-4-yl]carbonyl}amino)phenyl]sulfamoyl} pyrrolidine-1-carboxylate], the pIC50 was under 4.70. In the case of `Cc1nsc(Nc2cncc(C(F)(F)F)n2)c1C(=O)Nc1ccc(F)c(OC2CCN(CC(F)(F)F)CC2)c1` [Example 267, N-(4-fluoro-3-{[1-(2,2,2-trifluoroethyl)piperidin-4-yl]oxy}phenyl)-3-methyl-5-{[6-(trifluoromethyl)pyrazin-2-yl]amino}-1,2-thiazole-4-carboxamide] it was under 4.70. As for `CCNC(=O)c1cccc(NC(=O)c2c(C)nsc2Nc2cnc3ccccc3n2)c1` [Example 251, N-[3-(ethylcarbamoyl)phenyl]-3-methyl-5-(quinoxalin-2-ylamino)-1,2-thiazole-4-carboxamide], the pIC50 is under 4.70. On to `Cc1nsc(Nc2cnc(C(F)(F)F)cn2)c1C(=O)Nc1ccc(OC2CCN(CCC(F)(F)F)C2)nc1` (stereo not drawn) [Example 298, 3-methyl-5-{[5-(trifluoromethyl)pyrazin-2-yl]amino}-N-(6-{[1-(3,3,3-trifluoropropyl)pyrrolidin-3-yl]oxy}pyridin-3-yl)-1,2-thiazole-4-carboxamide], for which the pIC50 is under 4.70. In the case of `Cc1nsc(Nc2cnc3ccccc3n2)c1C(=O)Nc1cccc(NS(=O)(=O)C2CN(CCF)C2)c1` [Example 287, N-[3-({[1-(2-fluoroethyl)azetidin-3-yl]sulfonyl}amino)phenyl]-3-methyl-5-(quinoxalin-2-ylamino)-1,2-thiazole-4-carboxamide] it was under 4.70; in that of `Cc1nsc(Nc2cncc(C(F)(F)F)n2)c1C(=O)Nc1ccc(C(=O)N2CCN(CC(F)F)CC2)cc1` [Example 273, N-(4-{[4-(2,2-difluoroethyl)piperazin-1-yl]carbonyl}phenyl)-3-methyl-5-{[6-(trifluoromethyl)pyrazin-2-yl]amino}-1,2-thiazole-4-carboxamide], under 4.70; in that of `Cc1nsc(Nc2cnc(C(F)(F)F)cn2)c1C(=O)Nc1ccc(F)c(OCC2CCN(CC(F)F)CC2)c1` [Example 308, N-(3-{[1-(2,2-difluoroethyl)piperidin-4-yl]methoxy}-4-fluorophenyl)-3-methyl-5-{[5-(trifluoromethyl)pyrazin-2-yl]amino}-1,2-thiazole-4-carboxamide], at most 4.70. In the case of `Cc1nsc(Nc2cnc3ccccc3n2)c1C(=O)Nc1cccc(NS(=O)(=O)C2CCCN(C(=O)OCc3ccccc3)C2)c1` (stereo not drawn) [Example 291, benzyl 3-{[3-({[3-methyl-5-(quinoxalin-2-ylamino)-1,2-thiazol-4-yl]carbonyl}amino)phenyl]sulfamoyl} piperidine-1-carboxylate] it was under 4.70. In the case of `Cc1nsc(Nc2cc(C#N)ccn2)c1C(=O)Nc1ccc(OC2CCNCC2)nc1` [Example 24, 5-[(4-Cyanopyridin-2-yl)amino]-3-methyl-N-[6-(piperidin-4-yloxy)pyridin-3-yl]-1,2-thiazole-4-carboxamide], the pIC50 was 5.05. In the case of `Cc1nsc(Nc2cnc(C(F)(F)F)cn2)c1C(=O)Nc1ccc(F)c(OCC2CCN(CCF)C2)c1` (stereo not drawn) [Example 317, N-(4-fluoro-3-{[1-(2-fluoroethyl)pyrrolidin-3-yl]methoxy}phenyl)-3-methyl-5-{[5-(trifluoromethyl)pyrazin-2-yl]amino}-1,2-thiazole-4-carboxamide] it was under 4.70; in that of `Cc1nsc(Nc2cnc(C(F)(F)F)cn2)c1C(=O)Nc1ccc(F)c(OC2CCN(CCF)CC2)c1` [Example 266, N-(4-fluoro-3-{[1-(2-fluoroethyl)piperidin-4-yl]oxy}phenyl)-3-methyl-5-{[5-(trifluoromethyl)pyrazin-2-yl]amino}-1,2-thiazole-4-carboxamide], under 4.70.
